These results are taken from PMC4503722, “Novel Phenotypic Outcomes Identified for a Public Collection of Approved Drugs from a Publicly Accessible Panel of Assays” (PLoS ONE, 2015).

For one assay, the system named is SNU-C1. As to the kind of experiment: cells. Format: cell-based. The note with it: for Basal_Viability ATP SNU-C1 IC50/EC50: assay number 30, basal.
The target in another assay is T1, hp70S6K1 (RPS6KB1) (Homo sapiens, UniProt P23443).
T1 construct: purchased Cerep (LANCE kinase assay platform, contract assay)
The assay can be described thus: Cerep LANCE kinase assay hp70S6K1 (S1 assay 31). The note with it: for hp70S6K1 LANCE IC50/EC50: assay number 31. The class given is biochemical. For orientation: In TR-FRET formats the signal depends on donor and acceptor labels being close together.

The target in the next assay is T2, hGSK3b (Homo sapiens, UniProt P49841).
T2 construct: purchased Cerep (LANCE kinase assay platform, contract assay)
The assay can be described thus: Cerep LANCE kinase assay hGSK3b (S1 assay 34). The class given is biochemical. The note with it: for hGSK3b LANCE IC50/EC50: assay number 34.

For a further assay, the system named is HCT116. The assay can be described thus: cells. As to conditions: for Basal_Viability ATP HCT116 IC50/EC50: assay number 25, basal. The class given is cell-based.
In assay [1] the test system is nuclear β-catenin in C2C12 cells. The assay can be described thus: cells. Format: cell-based. As to conditions: for WntCondMedia_bCatenin C2C12 IC50/EC50: assay number 5, concentration response.
Another assay concerns SW480. As to the kind of experiment: cells. The class given is cell-based. As to conditions: for Basal_Viability ATP SW480 IC50/EC50: assay number 24, basal.
In assay [2] the test system is ECFC/ADSC co-culture cell nuclei number.
For another assay, the system named is HT-29. The assay can be described thus: cells. Format: cell-based. The note with it: for Basal_Viability ATP HT-29 IC50/EC50: assay number 28, basal.
In assay [3] the test system is endothelial tube formation in co-cultures of ECFCs and ADSCs treated with VEGF. The assay can be described thus: cells. Format: cell-based, human.
The subject of a further assay is Colo320. The assay can be described thus: cells. The class given is cell-based. As to conditions: for Basal_Viability ATP Colo 320 IC50/EC50: assay number 27, basal.
For assay [4], the system named is HCT116 cells treated with a GSK3β inhibitor. As to the kind of experiment: cells. Format: cell-based. As to conditions: for GSK3b inh pretreated_Viability ATP HCT116 IC50/EC50: assay number 26, GSK3b inhibitor pretreated.
For a further assay, the system named is HeLa cells. The assay can be described thus: cells. The class given is cell-based. The note with it: for Hela CellCycMod PI 2N IC50/EC50: assay number 14; for Hela CellCycMod PI S Phase IC50/EC50: assay number 15; for Hela CellCycMod PI 4N IC50/EC50: assay number 16; for Hela CellCycMod PI MI IC50/EC50: assay number 17; for Hela CellCycMod PI Cell Number IC50/EC50: assay number 18.

In another assay the target is T3, hFLT3 (Homo sapiens, UniProt P36888).
T3 construct: purchased Cerep (LANCE kinase assay platform, contract assay)
The assay can be described thus: Cerep LANCE kinase assay hFLT3 (S1 assay 35). Format: biochemical. As to conditions: for hFLT3 LANCE IC50/EC50: assay number 35.

The subject of a further assay is RKO. The assay can be described thus: cells. Format: cell-based. As to conditions: for Basal_Viability ATP RKO IC50/EC50: assay number 29, basal.
A further assay addresses T4, hJAK2 (Homo sapiens, UniProt O60674).
T4 construct: purchased Cerep (LANCE kinase assay platform, contract assay)
As to the kind of experiment: Cerep LANCE kinase assay hJAK2 (S1 assay 33). The note with it: for hJAK2 LANCE IC50/EC50: assay number 33. The class given is biochemical.

In the next assay the target is T5, hKDR (Homo sapiens, UniProt P35968).
T5 construct: purchased Cerep (LANCE kinase assay platform, contract assay)
The assay can be described thus: Cerep LANCE kinase assay hKDR (S1 assay 32). The class given is biochemical. The note with it: for hKDR LANCE IC50/EC50: assay number 32.

For a further assay, the system named is DLD-1. The assay can be described thus: cells. The class given is cell-based. As to conditions: for Basal_Viability ATP DLD-1 IC50/EC50: assay number 23, basal.
The test system of assay [5] is alkaline phosphatase (ALP) activity in C2C12 cells. Format: cell-based. The note with it: for WntCondMedia_Alk Phos C2C12 IC50/EC50: assay number 6, concentration response.

Bounds are passed on as bounds.

T2 sequence (P49841 whole entry): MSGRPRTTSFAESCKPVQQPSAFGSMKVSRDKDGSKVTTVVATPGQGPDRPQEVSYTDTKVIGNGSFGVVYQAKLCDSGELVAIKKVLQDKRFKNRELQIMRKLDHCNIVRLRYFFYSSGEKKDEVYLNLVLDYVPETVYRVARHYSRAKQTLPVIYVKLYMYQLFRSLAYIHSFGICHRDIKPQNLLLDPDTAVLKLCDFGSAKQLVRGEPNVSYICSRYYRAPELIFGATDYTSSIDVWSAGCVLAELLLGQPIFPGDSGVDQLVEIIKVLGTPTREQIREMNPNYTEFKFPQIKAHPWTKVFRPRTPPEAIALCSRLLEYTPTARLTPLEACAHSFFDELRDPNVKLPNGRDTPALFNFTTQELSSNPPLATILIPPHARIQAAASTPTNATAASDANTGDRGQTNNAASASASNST
T3 sequence (P36888 27-993): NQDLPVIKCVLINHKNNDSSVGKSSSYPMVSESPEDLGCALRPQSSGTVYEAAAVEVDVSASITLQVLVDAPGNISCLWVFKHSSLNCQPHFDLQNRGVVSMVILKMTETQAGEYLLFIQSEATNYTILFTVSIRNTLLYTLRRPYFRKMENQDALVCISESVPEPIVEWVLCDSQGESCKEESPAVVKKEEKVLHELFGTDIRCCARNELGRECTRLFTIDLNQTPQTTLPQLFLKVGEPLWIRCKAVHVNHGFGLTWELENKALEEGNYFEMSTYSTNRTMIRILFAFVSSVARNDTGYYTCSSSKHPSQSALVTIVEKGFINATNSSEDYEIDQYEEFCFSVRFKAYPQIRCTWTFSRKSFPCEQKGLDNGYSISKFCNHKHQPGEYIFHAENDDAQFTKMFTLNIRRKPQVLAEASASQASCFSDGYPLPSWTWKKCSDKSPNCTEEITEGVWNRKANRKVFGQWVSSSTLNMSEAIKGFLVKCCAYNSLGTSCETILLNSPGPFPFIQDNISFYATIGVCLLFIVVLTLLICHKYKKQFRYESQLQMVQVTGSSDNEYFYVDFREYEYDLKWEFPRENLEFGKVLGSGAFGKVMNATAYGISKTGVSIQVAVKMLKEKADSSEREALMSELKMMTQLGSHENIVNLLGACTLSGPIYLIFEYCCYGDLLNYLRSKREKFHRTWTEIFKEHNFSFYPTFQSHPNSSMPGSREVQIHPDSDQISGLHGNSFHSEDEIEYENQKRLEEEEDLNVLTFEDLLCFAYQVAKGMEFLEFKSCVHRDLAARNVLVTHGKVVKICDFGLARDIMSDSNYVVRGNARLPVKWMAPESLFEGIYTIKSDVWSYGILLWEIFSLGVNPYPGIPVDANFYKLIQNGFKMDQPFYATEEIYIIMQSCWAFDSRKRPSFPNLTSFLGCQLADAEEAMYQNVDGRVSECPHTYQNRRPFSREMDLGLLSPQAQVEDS
T1 sequence (P23443 whole entry): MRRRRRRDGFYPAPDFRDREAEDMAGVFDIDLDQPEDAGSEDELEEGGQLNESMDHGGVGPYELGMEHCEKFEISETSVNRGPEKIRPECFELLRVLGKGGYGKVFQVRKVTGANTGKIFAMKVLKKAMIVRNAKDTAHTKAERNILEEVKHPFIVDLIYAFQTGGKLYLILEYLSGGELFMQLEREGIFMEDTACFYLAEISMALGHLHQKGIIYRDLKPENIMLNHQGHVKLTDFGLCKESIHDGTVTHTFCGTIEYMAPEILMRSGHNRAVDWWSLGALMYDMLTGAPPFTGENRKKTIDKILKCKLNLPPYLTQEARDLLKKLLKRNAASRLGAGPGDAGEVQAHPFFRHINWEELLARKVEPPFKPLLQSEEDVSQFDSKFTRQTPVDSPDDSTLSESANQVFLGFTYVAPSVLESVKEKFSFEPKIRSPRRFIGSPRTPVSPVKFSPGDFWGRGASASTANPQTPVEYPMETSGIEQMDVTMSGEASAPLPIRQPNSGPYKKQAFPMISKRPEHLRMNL
T4 sequence (O60674 whole entry): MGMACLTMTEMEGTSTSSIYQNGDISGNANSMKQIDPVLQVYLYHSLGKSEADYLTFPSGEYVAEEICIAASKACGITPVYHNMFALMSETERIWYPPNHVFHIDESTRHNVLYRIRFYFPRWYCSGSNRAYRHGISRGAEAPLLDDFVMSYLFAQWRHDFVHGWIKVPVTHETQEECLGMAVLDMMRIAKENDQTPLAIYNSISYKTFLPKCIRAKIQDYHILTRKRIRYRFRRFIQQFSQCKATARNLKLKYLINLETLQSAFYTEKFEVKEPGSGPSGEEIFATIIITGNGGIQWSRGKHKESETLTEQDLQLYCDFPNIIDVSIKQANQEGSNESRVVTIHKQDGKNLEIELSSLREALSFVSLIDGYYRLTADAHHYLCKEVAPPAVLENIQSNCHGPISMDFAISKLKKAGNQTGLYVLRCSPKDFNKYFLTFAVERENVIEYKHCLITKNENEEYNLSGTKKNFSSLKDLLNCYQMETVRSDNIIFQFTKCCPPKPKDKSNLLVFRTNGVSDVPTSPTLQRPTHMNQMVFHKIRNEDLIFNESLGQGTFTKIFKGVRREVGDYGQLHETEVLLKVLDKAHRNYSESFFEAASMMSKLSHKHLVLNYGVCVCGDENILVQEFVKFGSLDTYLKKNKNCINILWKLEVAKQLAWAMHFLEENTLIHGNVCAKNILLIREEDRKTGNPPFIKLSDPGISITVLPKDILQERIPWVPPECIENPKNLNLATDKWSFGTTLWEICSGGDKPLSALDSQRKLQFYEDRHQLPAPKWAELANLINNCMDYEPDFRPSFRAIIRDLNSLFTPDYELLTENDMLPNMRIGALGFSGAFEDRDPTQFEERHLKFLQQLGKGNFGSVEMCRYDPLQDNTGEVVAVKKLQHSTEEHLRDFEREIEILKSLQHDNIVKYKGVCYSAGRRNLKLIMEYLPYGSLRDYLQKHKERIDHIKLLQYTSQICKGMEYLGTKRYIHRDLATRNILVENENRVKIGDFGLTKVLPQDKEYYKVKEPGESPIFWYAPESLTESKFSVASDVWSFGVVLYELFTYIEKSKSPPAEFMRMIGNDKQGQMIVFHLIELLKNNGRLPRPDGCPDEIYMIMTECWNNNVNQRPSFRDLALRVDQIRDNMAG
T5 sequence (P35968 20-1356): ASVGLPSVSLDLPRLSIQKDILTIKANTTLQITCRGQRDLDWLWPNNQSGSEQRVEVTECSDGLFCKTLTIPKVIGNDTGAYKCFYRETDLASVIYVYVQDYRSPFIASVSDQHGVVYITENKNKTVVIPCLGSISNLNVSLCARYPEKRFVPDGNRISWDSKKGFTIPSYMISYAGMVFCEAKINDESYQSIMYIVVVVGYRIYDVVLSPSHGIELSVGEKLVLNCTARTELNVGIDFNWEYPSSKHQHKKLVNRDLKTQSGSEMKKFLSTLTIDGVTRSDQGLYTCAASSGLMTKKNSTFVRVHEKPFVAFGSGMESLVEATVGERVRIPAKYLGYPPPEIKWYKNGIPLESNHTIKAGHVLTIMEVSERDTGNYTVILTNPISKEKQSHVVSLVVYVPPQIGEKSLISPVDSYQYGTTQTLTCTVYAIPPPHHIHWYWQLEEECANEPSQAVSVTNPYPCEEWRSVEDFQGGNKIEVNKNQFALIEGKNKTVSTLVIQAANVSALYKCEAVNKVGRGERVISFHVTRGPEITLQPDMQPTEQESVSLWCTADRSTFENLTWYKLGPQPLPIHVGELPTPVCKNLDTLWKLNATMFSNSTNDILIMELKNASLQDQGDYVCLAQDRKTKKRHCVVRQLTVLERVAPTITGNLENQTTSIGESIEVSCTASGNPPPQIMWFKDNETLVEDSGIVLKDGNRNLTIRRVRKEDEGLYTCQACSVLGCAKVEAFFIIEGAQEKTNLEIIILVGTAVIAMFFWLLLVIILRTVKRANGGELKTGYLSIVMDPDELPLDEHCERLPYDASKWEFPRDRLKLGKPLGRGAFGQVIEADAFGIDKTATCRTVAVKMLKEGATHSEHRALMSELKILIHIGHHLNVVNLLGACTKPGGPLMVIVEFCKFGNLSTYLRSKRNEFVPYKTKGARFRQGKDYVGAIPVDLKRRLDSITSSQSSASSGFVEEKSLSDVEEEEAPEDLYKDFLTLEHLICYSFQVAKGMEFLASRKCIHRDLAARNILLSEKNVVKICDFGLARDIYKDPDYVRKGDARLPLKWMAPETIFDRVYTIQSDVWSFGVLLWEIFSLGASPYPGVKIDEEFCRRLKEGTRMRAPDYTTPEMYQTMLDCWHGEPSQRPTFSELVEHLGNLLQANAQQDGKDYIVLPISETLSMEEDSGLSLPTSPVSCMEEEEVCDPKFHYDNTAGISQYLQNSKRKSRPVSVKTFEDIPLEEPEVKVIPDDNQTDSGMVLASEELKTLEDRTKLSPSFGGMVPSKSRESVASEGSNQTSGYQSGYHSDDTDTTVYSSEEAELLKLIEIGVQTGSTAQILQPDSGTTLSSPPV

On to `O=C1c2c(O)ccc(O)c2C(=O)c2c(NCCNCCO)ccc(NCCNCCO)c21` [NCGC00015693-09], for which, in the assay with SNU-C1, the “Basal_Viability ATP SNU-C1 IC50/EC50” value is 1718 nM. At hp70S6K1 (RPS6KB1), the “hp70S6K1 LANCE IC50/EC50” value is greater than 20000 nM. In addition, the “hGSK3b LANCE IC50/EC50” value at hGSK3b is greater than 20000 nM. For the same molecule, in the assay with HCT116, the “Basal_Viability ATP HCT116 IC50/EC50” value worked out at 1233.5 nM. The “WntCondMedia_bCatenin C2C12 IC50/EC50” value in [1] is 30.3 nM. In addition, the “Basal_Viability ATP SW480 IC50/EC50” value in the assay on SW480 turned out to be 1830.6 nM. In addition, the “VEGF_ADSC\ECFC Angio Hoechst NucArea IC50/EC50” value in [2] was 12.74 nM. In the assay on HT-29, the “Basal_Viability ATP HT-29 IC50/EC50” value came to 7591 nM. In addition, in assay [3], the “VEGF_ADSC\ECFC Angio CD31 TubeArea IC50/EC50” value was 4.4 nM. The “Basal_Viability ATP Colo 320 IC50/EC50” value in the assay on Colo320 was 7407.9 nM. For the same molecule, the “GSK3b inh pretreated_Viability ATP HCT116 IC50/EC50” value in assay [4] came out at 1 nM. Further, in the assay with HeLa cells, the “Hela CellCycMod PI 2N IC50/EC50” value was greater than 10000 nM, the “Hela CellCycMod PI S Phase IC50/EC50” value was greater than 10000 nM, the “Hela CellCycMod PI 4N IC50/EC50” value is greater than 10000 nM and the “Hela CellCycMod PI MI IC50/EC50” value was greater than 10000 nM. Moreover, the “Hela CellCycMod PI Cell Number IC50/EC50” value in the assay with HeLa cells amounted to 3.1 nM. The “hFLT3 LANCE IC50/EC50” value at hFLT3 is greater than 20000 nM. For the same molecule, the “Basal_Viability ATP RKO IC50/EC50” value in the assay with RKO is 1029.1 nM. The “hJAK2 LANCE IC50/EC50” value on hJAK2 was greater than 20000 nM. Also, at hKDR, the “hKDR LANCE IC50/EC50” value is greater than 20000 nM. Moreover, in the assay with DLD-1, the “Basal_Viability ATP DLD-1 IC50/EC50” value was found to be 1603.8 nM. Also, the “WntCondMedia_Alk Phos C2C12 IC50/EC50” value in assay [5] was 1509 nM.

`COc1cccc2c1C(=O)c1c(O)c3c(c(O)c1C2=O)C[C@@](O)(C(C)=O)C[C@@H]3O[C@H]1C[C@H](N)[C@H](O)[C@H](C)O1` [NCGC00024246-15]: the “Basal_Viability ATP SNU-C1 IC50/EC50” value in the assay with SNU-C1 came to 337.6 nM. Also, on hp70S6K1 (RPS6KB1), the “hp70S6K1 LANCE IC50/EC50” value was greater than 20000 nM. The “hGSK3b LANCE IC50/EC50” value at hGSK3b is greater than 20000 nM. The “Basal_Viability ATP HCT116 IC50/EC50” value in the assay on HCT116 turned out to be 50.86 nM. Also, the “WntCondMedia_bCatenin C2C12 IC50/EC50” value in [1] worked out at 369.1 nM. The “Basal_Viability ATP SW480 IC50/EC50” value with SW480 amounted to 1466 nM. Moreover, the “Basal_Viability ATP HT-29 IC50/EC50” value in the assay on HT-29 amounted to 648.5 nM. For the same molecule, the “Basal_Viability ATP Colo 320 IC50/EC50” value with Colo320 was 9247.6 nM. Besides, the “GSK3b inh pretreated_Viability ATP HCT116 IC50/EC50” value in [4] amounted to 55.38 nM. Besides, in the assay on HeLa cells, the “Hela CellCycMod PI 2N IC50/EC50” value was 10.16 nM, the “Hela CellCycMod PI S Phase IC50/EC50” value came out at 9604.6 nM, the “Hela CellCycMod PI 4N IC50/EC50” value was 46.45 nM and the “Hela CellCycMod PI MI IC50/EC50” value is 373.8 nM. For the same molecule, the “Hela CellCycMod PI Cell Number IC50/EC50” value in the assay on HeLa cells stood at 8.05 nM. Besides, the “hFLT3 LANCE IC50/EC50” value on hFLT3 is greater than 20000 nM. Further, the “Basal_Viability ATP RKO IC50/EC50” value in the assay with RKO turned out to be 118.2 nM. In addition, the “hJAK2 LANCE IC50/EC50” value at hJAK2 is greater than 20000 nM. In addition, the “hKDR LANCE IC50/EC50” value at hKDR is greater than 20000 nM. Also, in the assay with DLD-1, the “Basal_Viability ATP DLD-1 IC50/EC50” value came to 188 nM. Besides, the “WntCondMedia_Alk Phos C2C12 IC50/EC50” value in assay [5] turned out to be 6.1 nM.

Turning to `O=[N+]([O-])c1ccc(O)c2ncccc12` [NCGC00160664-03], the “IC50/EC50, Basal_Viability ATP SNU-C1 (assay number 30)” value with SNU-C1 was greater than 20000 nM. Further, the “IC50/EC50, hp70S6K1 LANCE (assay number 31)” value on hp70S6K1 (RPS6KB1) is greater than 20000 nM. Besides, the “IC50/EC50, hGSK3b LANCE (assay number 34)” value against hGSK3b is greater than 20000 nM. Further, in the assay with HCT116, the “IC50/EC50, Basal_Viability ATP HCT116 (assay number 25)” value stood at 920.6 nM. The “IC50/EC50, WntCondMedia_bCatenin C2C12 (assay number 5)” value in [1] is greater than 20000 nM. In addition, the “IC50/EC50, Basal_Viability ATP SW480 (assay number 24)” value in the assay on SW480 stood at 604.6 nM. Further, the “IC50/EC50, Basal_Viability ATP HT-29 (assay number 28)” value in the assay with HT-29 is greater than 20000 nM. Also, the “IC50/EC50, Basal_Viability ATP Colo 320 (assay number 27)” value in the assay with Colo320 was 683.7 nM. In [4], the “IC50/EC50, GSK3b inh pretreated_Viability ATP HCT116 (assay number 26)” value came out at 375.1 nM. Moreover, in the assay on HeLa cells, the “IC50/EC50, Hela CellCycMod PI 2N (assay number 14)” value worked out at 1702.8 nM; the “IC50/EC50, Hela CellCycMod PI 4N (assay number 16)” value is greater than 10000 nM; the “IC50/EC50, Hela CellCycMod PI Cell Number (assay number 18)” value came to 295.2 nM; the “IC50/EC50, Hela CellCycMod PI MI (assay number 17)” value was greater than 10000 nM. In addition, the “IC50/EC50, Hela CellCycMod PI S Phase (assay number 15)” value in the assay on HeLa cells is greater than 10000 nM. Also, on hFLT3, the “IC50/EC50, hFLT3 LANCE (assay number 35)” value was greater than 20000 nM. Besides, the “IC50/EC50, Basal_Viability ATP RKO (assay number 29)” value in the assay with RKO was determined as 710.1 nM. Also, on hJAK2, the “IC50/EC50, hJAK2 LANCE (assay number 33)” value was greater than 20000 nM. Also, the “IC50/EC50, hKDR LANCE (assay number 32)” value against hKDR was greater than 20000 nM. In the assay with DLD-1, the “IC50/EC50, Basal_Viability ATP DLD-1 (assay number 23)” value is 1375 nM. In addition, in assay [5], the “IC50/EC50, WntCondMedia_Alk Phos C2C12 (assay number 6)” value was 6361.5 nM.
